Laboratory results from paper PMC10708540, “Determination and Kinetic Characterization of a New Potential Inhibitor for AmsI Protein Tyrosine Phosphatase from the Apple Pathogen Erwinia amylovora” (Molecules, 2023).

Experiments:
[1] = target: T1, EaAmsI (AmsI, Low Molecular Weight Protein Tyrosine Phosphatase) (Erwinia amylovora, UniProt Q46630); experiment: pNPP hydrolysis at […] nm, Michaelis-Menten global fit with competitive inhibition model; type: biochemical
T1 construct: recombinant EaAmsI (gene from strain Ea273, pETM-11 vector)
T1 sequence (Q46630 whole entry): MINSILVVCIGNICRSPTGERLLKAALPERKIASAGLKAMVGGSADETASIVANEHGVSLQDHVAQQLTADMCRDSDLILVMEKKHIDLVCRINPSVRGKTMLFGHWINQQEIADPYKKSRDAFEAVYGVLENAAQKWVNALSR

[2] = target: T1, EaAmsI (AmsI, Low Molecular Weight Protein Tyrosine Phosphatase); experiment: pNPP hydrolysis, dose-response IC50; type: biochemical
[3] = system: O=[N+]([O-])c1ccc(OP(=O)(O)O)cc1; experiment: purified protein

Work on CCCCCCCO[C@@H]1O[C@H](CO)[C@@H](O)[C@H](O)[C@H]1O [N7G, (2R,3R,4S,5S,6R)-2-(heptyloxy)-6-(hydroxymethyl)oxane-3,4,5-triol] yielded a Ki [1] of 0.0078 ± 0.0006 mM.

CCCCCCCCO[C@@H]1O[C@H](CO)[C@@H](O)[C@H](O)[C@H]1O [N8G, (2R,3S,4S,5R,6R)-2-(hydroxymethyl)-6-(octyloxy)oxane-3,4,5-triol] gave an IC50 [2] of 9.5 ± 1.3 mM.

With “EaAmsI (AmsI, Low Molecular Weight Protein Tyrosine Phosphatase) (Erwinia amylovora)” the Km [3] was 15.1 ± 1.3 mM.
